{"source": "patent US10954252B1", "about": "“Inhibitors of human immunodeficiency virus replication” (ViiV HEALTHCARE UK (NO.5) LIMITED, priority 2017, dated 2021)", "type_in_all_cases": "cell-based", "key": {"[1]": {"tested_on": "recombinant NL4-3 virus (nef section replaced with Renilla luciferase gene) in MT-2 cells", "assay": "HIV cell culture assay (antiviral activity, luciferase readout)", "details": "MT-2 cells infected for 4-5 days with recombinant NL4-3 luciferase virus", "summary_of_the_method": "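Serially diluted compounds were present throughout a 4-5 day infection of MT-2 cells by recombinant NL4-3 whose nef region partly encodes Renilla luciferase. Antiviral activity was taken from live-cell luciferase signal, with the 50% effective concentration fitted by the exponential median effect equation.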"}, "uninfected MT2 cells": {"tested_on": "uninfected MT2 cells", "assay": "Compound cytotoxicity, XTT-based colorimetric assay", "summary_of_the_method": "(§1)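 XTT colorimetric read-out on day 4 gave CC50 values, using MT2 cells left uninfected but otherwise handled as in the antiviral assay.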"}, "[2]": {"assay": "Compound cytotoxicity, XTT-based colorimetric assay", "details": "human, uninfected MT2 cells", "summary_of_the_method": "as §1"}}}
{"smiles": "O=C(Cc1c[nH]c2ccc(O)cc12)NC(Cc1cc(F)cc(F)c1)c1nc2cn[nH]c2cc1-c1ccc2scnc2c1", "note": "(single isomer, unassigned) [Example 3.4, N-(1-(6-(benzo[d]thiazol-5-yl)-1H-pyrazolo[4,3-b]pyridin-5-yl)-2-(3,5-difluorophenyl)ethyl)-2-(5-hydroxy-1H-indol-3-yl)acetamide]", "values": [{"measurement": "EC50", "setting": "[1]; Table 1", "result": 470, "unit": "nM"}, {"measurement": "CC50", "setting": "uninfected MT2 cells; Table 1, day 4, XTT", "result": 83900, "unit": "nM"}]}
{"smiles": "COc1cc(OC)c2c(=O)n(-c3ccc(Cl)c4c(NS(C)(=O)=O)nn(C)c34)c([C@H](Cc3cc(F)cc(F)c3)NC(=O)Cn3nc(C(F)F)c4c3C(F)(F)[C@@H]3C[C@H]43)nc2c1", "note": "(single isomer, unassigned) [Example 182]", "values": [{"measurement": "EC50", "setting": "[1]; Table 1a", "result": 0.061, "unit": "nM"}, {"measurement": "CC50", "setting": "uninfected MT2 cells; Table 1a, day 4, XTT", "result": "> 1000", "unit": "nM"}]}
{"smiles": "Cc1ccn(CC(=O)N[C@@H](Cc2cc(F)cc(F)c2)c2nc3ncccc3c(=O)n2-c2ccc(Cl)c3c(NS(C)(=O)=O)nn(C)c23)n1", "note": "(single isomer, unassigned) [Example 47.2]", "values": [{"measurement": "EC50", "setting": "[1]; Table 1a", "result": 1.7, "unit": "nM"}, {"measurement": "CC50", "setting": "uninfected MT2 cells; Table 1a, day 4, XTT", "result": "> 1000", "unit": "nM"}]}
{"smiles": "Cn1nc(NS(C)(=O)=O)c2c(Cl)ccc(-n3c([C@H](Cc4cc(F)cc(F)c4)NC(=O)Cn4nc(C(F)F)c5c4C(F)(F)[C@@H]4C[C@H]54)nc4cc(C5CC5)ccc4c3=O)c21", "note": "(mixture of isomers) [Example 198, N—((S)-1-(3-(4-chloro-1-methyl-3-(methylsulfonamido)-1H-indazol-7-yl)-7-cyclopropyl-4-oxo-3,4-dihydroquinazolin-2-yl)-2-(3,5-difluorophenyl)ethyl)-2-((3bS,4aR)-3-(difluoromethyl)-5,5-difluoro-3b,4,4a,5-tetrahydro-1H-cyclopropa[3,4]cyclopenta[1,2-c]pyrazol-1-yl)acetamide]", "values": [{"measurement": "EC50", "setting": "[1]; Table 1a", "result": 0.15, "unit": "nM"}, {"measurement": "CC50", "setting": "uninfected MT2 cells; Table 1a, day 4, XTT", "result": "> 1000", "unit": "nM"}]}
{"smiles": "Cn1nc(NS(C)(=O)=O)c2c(Cl)ccc(-c3cc4[nH]ccc4nc3C(Cc3cc(F)cc(F)c3)NC(=O)Cn3nc(C(F)F)c4c3C(F)(F)[C@@H]3C[C@H]43)c21", "note": "(single isomer, unassigned) [Example 5.4]", "values": [{"measurement": "EC50", "setting": "[1]; Table 1", "result": 0.2, "unit": "nM"}, {"measurement": "CC50", "setting": "uninfected MT2 cells; Table 1, day 4, XTT", "result": "> 10000", "unit": "nM"}]}
{"smiles": "Cn1nc(NS(C)(=O)=O)c2c(Cl)ccc(-n3c([C@H](Cc4cc(F)cc(F)c4)NC(=O)Cn4nc(C(F)F)c5c4C(F)(F)[C@@H]4C[C@H]54)nc4ccc(Cl)c(F)c4c3=O)c21", "note": "(single isomer, unassigned) [Example 177]", "values": [{"measurement": "EC50", "setting": "[1]; Table 1a", "result": 45, "unit": "nM"}, {"measurement": "CC50", "setting": "uninfected MT2 cells; Table 1a, day 4, XTT", "result": "> 1000", "unit": "nM"}]}
{"smiles": "Cn1nc(NS(C)(=O)=O)c2c(Cl)ccc(-n3c([C@H](Cc4cc(F)cc(F)c4)NC(=O)Cn4nc(C(F)F)c5c4C(F)(F)[C@@H]4C[C@H]54)nc4cc(S(C)(=O)=O)ccc4c3=O)c21", "note": "(mixture of isomers) [Example 200, N—((S)-1-(3-(4-chloro-1-methyl-3-(methylsulfonamido)-1H-indazol-7-yl)-7-(methylsulfonyl)-4-oxo-3,4-dihydroquinazolin-2-yl)-2-(3,5-difluorophenyl)ethyl)-2-((3bS,4aR)-3-(difluoromethyl)-5,5-difluoro-3b,4,4a,5-tetrahydro-1H-cyclopropa[3,4]cyclopenta[1,2-c]pyrazol-1-yl)acetamide]", "values": [{"measurement": "EC50", "setting": "[1]; Table 1a", "result": 0.2, "unit": "nM"}, {"measurement": "CC50", "setting": "uninfected MT2 cells; Table 1a, day 4, XTT", "result": "> 1000", "unit": "nM"}]}
{"smiles": "Cn1nc(NS(C)(=O)=O)c2c(Cl)ccc(-c3cc4scnc4nc3C(Cc3cc(F)cc(F)c3)NC(=O)Cn3nc(C(F)F)c4c3C(F)(F)[C@@H]3C[C@H]43)c21", "note": "(single isomer, unassigned) [Example 1.3]", "values": [{"measurement": "EC50", "setting": "[1]; Table 1", "result": 0.3, "unit": "nM"}, {"measurement": "CC50", "setting": "uninfected MT2 cells; Table 1, day 4, XTT", "result": "> 10000", "unit": "nM"}]}
{"smiles": "Cn1nc(NS(C)(=O)=O)c2c(Cl)ccc(-c3cc4scnc4nc3C(Cc3cc(F)cc(F)c3)NC(=O)Cn3nc(C(F)F)c4c3C(F)(F)[C@@H]3C[C@H]43)c21", "note": "(single isomer, unassigned) [Example 1.5]", "values": [{"measurement": "EC50", "setting": "[1]; Table 1", "result": 1150, "unit": "nM"}, {"measurement": "CC50", "setting": "uninfected MT2 cells; Table 1, day 4, XTT", "result": "> 10000", "unit": "nM"}]}
{"smiles": "Cn1nc(NS(C)(=O)=O)c2c(Cl)ccc(-n3c([C@H](Cc4cc(F)cc(F)c4)NC(=O)Cn4nc(C(F)F)c5c4C(F)(F)[C@@H]4C[C@H]54)nc4ccc(F)c(Cl)c4c3=O)c21", "note": "(single isomer, unassigned) [Example 161]", "values": [{"measurement": "EC50", "setting": "[1]; Table 1a", "result": 28.9, "unit": "nM"}, {"measurement": "CC50", "setting": "uninfected MT2 cells; Table 1a, day 4, XTT", "result": "> 1000", "unit": "nM"}]}
{"smiles": "Cn1ccc2nc(C(Cc3cc(F)cc(F)c3)NC(=O)Cn3nc(C(F)F)c4c3C(F)(F)[C@@H]3C[C@H]43)c(-c3ccc(Cl)c4c(NS(C)(=O)=O)nn(C)c34)cc21", "note": "(single isomer, unassigned) [Example 118]", "values": [{"measurement": "EC50", "setting": "[1]; Table 1a", "result": 0.162, "unit": "nM"}, {"measurement": "CC50", "setting": "uninfected MT2 cells; Table 1a, day 4, XTT", "result": "> 10000", "unit": "nM"}]}
{"smiles": "Cn1nc(NS(C)(=O)=O)c2c(Cl)ccc(-n3c([C@H](Cc4cc(F)cc(F)c4)NC(=O)Cn4nc(C(F)F)c5c4C(F)(F)[C@@H]4C[C@H]54)nc4cc(C#N)ccc4c3=O)c21", "note": "(mixture of isomers) [Example 166, N—((S)-1-(3-(4-chloro-1-methyl-3-(methylsulfonamido)-1H-indazol-7-yl)-7-cyano-4-oxo-3,4-dihydroquinazolin-2-yl)-2-(3,5-difluorophenyl)ethyl)-2-((3bS,4aR)-3-(difluoromethyl)-5,5-difluoro-3b,4,4a,5-tetrahydro-1H-cyclopropa[3,4]cyclopenta[1,2-c]pyrazol-1-yl)acetamide]", "values": [{"measurement": "EC50", "setting": "[1]; Renilla, NL43, Table 1a", "result": 26, "unit": "nM"}, {"measurement": "CC50 at 4 days", "setting": "[2]; Table 1a, day 4, XTT", "result": "> 1000", "unit": "nM"}]}
{"smiles": "COC(=O)c1cc(-c2cc3[nH]ncc3nc2[C@H](Cc2cc(F)cc(F)c2)NC(=O)Cn2nc(C(F)F)c3c2C(F)(F)[C@@H]2C[C@H]32)ccc1Cl", "note": "[Example 10.9, Methyl 2-chloro-5-(5-((S)-1-(2-((3bS,4aR)-3-(difluoromethyl)-5,5-difluoro-3b,4,4a,5-tetrahydro-1H-cyclopropa[3,4]cyclopenta[1,2-c]pyrazol-1-yl)acetamido)-2-(3,5-difluorophenyl)ethyl)-1H-pyrazolo[4,3-b]pyridin-6-yl)benzoate]", "values": [{"measurement": "EC50", "setting": "[1]; Renilla, NL43, Table 1", "result": 1080, "unit": "nM"}, {"measurement": "CC50 at 4 days", "setting": "[2]; Table 1, day 4, XTT", "result": 8950, "unit": "nM"}]}
{"smiles": "Cn1nc(NS(C)(=O)=O)c2c(Cl)ccc(-n3c([C@H](Cc4cc(F)cc(F)c4)NC(=O)Cc4c[nH]c5ccc(O)cc45)nc4cc(CS(C)(=O)=O)ccc4c3=O)c21", "note": "[Example 203, (S)—N-(1-(3-(4-chloro-1-methyl-3-(methylsulfonamido)-1H-indazol-7-yl)-7-((methylsulfonyl)methyl)-4-oxo-3,4-dihydroquinazolin-2-yl)-2-(3,5-difluorophenyl)ethyl)-2-(5-hydroxy-1H-indol-3-yl)acetamide]", "values": [{"measurement": "EC50", "setting": "[1]; Table 1a", "result": 166, "unit": "nM"}, {"measurement": "CC50 at 4 days", "setting": "[2]; Table 1a, day 4, XTT", "result": "> 1000", "unit": "nM"}]}
{"smiles": "Cn1nc(NS(C)(=O)=O)c2c(Cl)ccc(-c3cc4scnc4nc3C(Cc3cc(F)cc(F)c3)NC(=O)Cn3nc(C(F)F)c4c3C(F)(F)[C@@H]3C[C@H]43)c21", "note": "(single isomer, unassigned) [Example 1.4]", "values": [{"measurement": "EC50", "setting": "[1]; Table 1", "result": 0.1, "unit": "nM"}, {"measurement": "CC50 at 4 days", "setting": "[2]; Table 1, day 4, XTT", "result": "> 10000", "unit": "nM"}]}
{"smiles": "Cn1nc(NS(C)(=O)=O)c2c(Cl)ccc(-n3c([C@H](Cc4cc(F)cc(F)c4)NC(=O)Cn4nc(C(F)F)c5c4C(F)(F)[C@@H]4C[C@H]54)nc4c(Cl)cccc4c3=O)c21", "note": "(single isomer, unassigned) [Example 101]", "values": [{"measurement": "EC50", "setting": "[1]; Table 1a", "result": 335, "unit": "nM"}, {"measurement": "CC50 at 4 days", "setting": "[2]; Table 1a, day 4, XTT", "result": "> 1000", "unit": "nM"}]}
{"smiles": "COc1ccc2c(=O)n(-c3ccc(Cl)c4c(NS(C)(=O)=O)nn(C)c34)c(C(Cc3cc(F)cc(F)c3)NC(=O)Cn3nc(C(F)F)c4c3C(F)(F)C3CC43)nc2n1", "note": "(stereo in doubt) [Example 13.1, N—((S)-1-(3-(4-chloro-1-methyl-3-(methylsulfonamido)-1H-indazol-7-yl)-7-methoxy-4-oxo-3,4-dihydropyrido[2,3-d]pyrimidin-2-yl)-2-(3,5-difluorophenyl)ethyl)-2-((3bS,4aR)-3-(difluoromethyl)-5,5-difluoro-3b,4,4a,5-tetrahydro-1H-cyclopropa[3,4]cyclopenta[1,2-c]pyrazol-1-yl)acetamide]", "values": [{"measurement": "EC50", "setting": "[1]; Renilla, NL43, Table 1", "result": 14300, "unit": "nM"}, {"measurement": "CC50 at 4 days", "setting": "[2]; Table 1, day 4, XTT", "result": "> 10000", "unit": "nM"}]}
